The text below walks through data of patent US9056876B2, “Substituted 1H-pyrazolo[3′,4′,4,5]thieno[2,3-b]pyridin-3-amine analogs as positive allosteric modulators of the muscarinic acetylcholine receptor M4” (VANDERBILT UNIVERSITY, priority 2011, dated 2015).

The assay has as its target T1, mAChR M4 (UniProt P08173).
T1 construct: hM1 and hM4 cDNAs were purchased from Missouri S&T cDNA Resource
T1 sequence (P08173 1-479): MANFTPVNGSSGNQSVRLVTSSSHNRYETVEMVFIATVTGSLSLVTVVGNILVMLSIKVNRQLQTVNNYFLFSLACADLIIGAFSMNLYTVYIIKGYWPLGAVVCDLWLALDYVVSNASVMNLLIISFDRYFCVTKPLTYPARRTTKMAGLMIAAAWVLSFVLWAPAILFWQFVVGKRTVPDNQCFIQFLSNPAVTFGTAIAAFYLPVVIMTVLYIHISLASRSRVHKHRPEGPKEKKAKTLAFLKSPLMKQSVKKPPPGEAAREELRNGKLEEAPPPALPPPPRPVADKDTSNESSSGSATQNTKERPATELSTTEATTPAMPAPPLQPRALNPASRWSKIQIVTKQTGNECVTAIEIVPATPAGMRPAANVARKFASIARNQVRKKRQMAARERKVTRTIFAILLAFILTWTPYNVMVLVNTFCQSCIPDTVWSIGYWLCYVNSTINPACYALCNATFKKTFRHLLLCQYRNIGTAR
The assay is described as follows: mAChR M4 cell-based functional assay (calcium mobilization, Fluo-4, FDSS). The settings on record: for Emax (%)*: % ACh maximum at 30 μM; for pEC50: positive allosteric modulator activity, EC20 acetylcholine response; for pEC50 / EC50: CHO-K1 cells; for EC50: positive allosteric modulator activity: concentration-dependent increase in the EC20 acetylcholine response, >10 μM estimated for low potency (no plateau). The source says: Chinese hamster ovary (CHO-K1) cells stably expressing rat (r)M1 were purchased from the American Type Culture Collection and cultured according to their indicated protocol. CHO cells stably expressing human (h)M2, hM3, and hM5 were described previously (Levey A I, et al., (1991) J Neurosci 11:3218-3226.); hM1 and hM4 cDNAs were purchased from Missouri S&T cDNA Resource; rM4 cDNA was provided by T. I. Bonner (National Institutes of Health, Bethesda, Md.). rM2 and rM3 were cloned from a rat brain cDNA library and sequence verified. hM1, rM2, rM3, hM4, and rM4 cDNAs were used to stably transfect CHO-K1 cells purchased from the American Type Culture Collection using Lipofectamine-2000. To make stable rM2, hM2, rM3, hM4, and rM4 cell lines for use in calcium mobilization assays, these cells also were stably transfected with a chimeric G-protein (Gqi5) (provided by B. R. Conklin, University of California, San Francisco) using Lipofectamine 2000. rM1, hM1, rM3, hM3, rM5, and hM5 cells were grown in Ham's F-12 medium containing 10% heat-inactivated fetal bovine serum (FBS), 20 mM HEPES, and 50 µg/mL G418 sulfate. rM2-Gqi5, hM2-Gqi5, and hM4-Gqi5 cells were grown in the same medium also containing 500 µg/mL Hygromycin B. Stable rM4-Gqi5 cells were grown in DMEM containing 10% heat-inactivated FBS, 20 mM HEPES, 400 µg/mL G418 sulfate, and 500 µg/mL Hygromycin B.
For high throughput measurement of agonist-evoked increases in intracellular calcium, CHO-K1 cells stably expressing the target muscarinic receptor were plated in growth medium lacking G418 and hygromycin at 15,000 cells/20 μL/well in Greiner 384-well black-walled, tissue culture (TC)-treated, clear-bottom plates (VWR). Cells were incubated overnight at 37° C. and 5% CO2. The next day, cells were washed using an ELX 405 (BioTek) with four washes (80 μL) of assay buffer then aspirated to 20 μL. Next, […] of 16 μM Fluo-4/acetoxymethyl ester (Invitrogen, Carlsbad, Calif.) prepared as a 2.3 mM stock in DMSO and mixed in a 1:1 ratio with 10% (w/v) Pluronic F-127 and diluted in assay buffer was added to the wells and the cell plates were incubated for 50 min at 37° C. and 5% CO2. Dye was removed by washing with the ELX 405 (four 80 μL washes of assay buffer) then aspirated to 20 μL. Compound master plates were formatted in an 11 point CRC format (1:3 dilutions) in 100% DMSO with a starting concentration of 10 mM using the BRAVO liquid handler (Agilent). Test compound CRCs were then transferred to daughter plates (240 nL) using the Echo acoustic plate reformatter (Labcyte, Sunnyvale, Calif.) and then diluted into assay buffer (40 μL) to a 2× stock using a Thermo Fisher Combi (Thermo Fisher Scientific, Waltham, Mass.).
Calcium flux was measured using the Functional Drug Screening System (FDSS) 6000 (Hamamatsu Corporation, Tokyo, Japan) as an increase in the fluorescent static ratio. Compounds were applied to cells (20 μL, 2×) using the automated system of the FDSS 6000 at 4 s into the 300 s protocol and the data were collected at 1 Hz. At 144 s into the 300 s protocol, 10 μL of an EC20 concentration of the muscarinic receptor agonist acetylcholine was added (5×), followed by the addition of 12 μL an EC80 concentration of acetylcholine at the 230 s time point (5×). Agonist activity was analyzed as a concentration-dependent increase in calcium mobilization upon compound addition. Positive allosteric modulator activity was analyzed as a concentration-dependent increase in the EC20 acetylcholine response. Antagonist activity was analyzed as a concentration-dependent decrease in the EC80 acetylcholine response. Concentration-response curves were generated using a four-parameter logistical equation in XLfit curve fitting software (IDBS, Bridgewater, N.J.) for Excel (Microsoft, Redmond, Wash.) or Prism (GraphPad Software, Inc., San Diego, Calif.). […]

Turning to `Cc1cc(C)c2c(n1)sc1c(NCc3scnc3C)nn(CCO)c12` [Compound 110, 2-(6,8-dimethyl-3-(((4-methylthiazol-5-yl)methyl)amino)-1H-pyrazolo[3′,4′:4,5]thieno[2,3-b]pyridin-1-yl)ethanol], the “Emax (%)*” value amounted to 72%, the pEC50 came to 7.08 and the half-maximal effective concentration (EC50) is 84 nM.

`Cc1cc(C)c2c(n1)sc1c(NC3CCOC3)nn(C)c12` (stereo not shown) [Compound 103, 1,6,8-trimethyl-N-(tetrahydrofuran-3-yl)-1H-pyrazolo[3′,4′:4,5]thieno[2,3-b]pyridin-3-amine]: the “Emax (%)*” value was found to be 67%, the pEC50 was 6.62 and the EC50 was 240 nM.

In the case of `Cc1cc(C)c2c(n1)sc1c(N)nn(C)c12` [Compound 29, 1,6,8-trimethyl-1H-pyrazolo[3′,4′:4,5]thieno[2,3-b]pyridin-3-amine], the “Emax (%)*” value stood at 49%, the pEC50 is listed as below 5.00 and the EC50 is above 10000 nM.

In the case of `COc1ccc(CNc2nn(C)c3c2sc2nc(C)c(Cl)c(C)c23)cc1` [Compound 18, 7-chloro-N-(4-methoxybenzyl)-1,6,8-trimethyl-1H-pyrazolo[3′,4′:4,5]thieno[2,3-b]pyridin-3-amine], the “Emax (%)*” value is listed as 51%, the negative logarithm of the EC50 (pEC50) was below 5.00 and the EC50 is above 10000 nM.

`Cc1cc(C)c2c(n1)sc1c(NC3CN(C(=O)OC(C)(C)C)C3)nn(C)c12` [Compound 106, tert-butyl 3-((1,6,8-trimethyl-1H-pyrazolo[3′,4′:4,5]thieno[2,3-b]pyridin-3-yl)amino)azetidine-1-carboxylate]: the “Emax (%)*” value is on record as 73%, the pEC50 was 7.57 and the concentration giving a half-maximal response (EC50) was 27 nM.

For `Cc1cc(C)c2c(n1)sc1c(NCC(C)(C)C)nn(C)c12` [Compound 104, 1,6,8-trimethyl-N-neopentyl-1H-pyrazolo[3′,4′:4,5]thieno[2,3-b]pyridin-3-amine], the “Emax (%)*” value is 61%, the negative logarithm of the EC50 (pEC50) turned out to be 6.00 and the EC50 is 1000 nM.

`Cc1cc(C)c2c(n1)sc1c(NCc3ccc(S(C)(=O)=O)cc3)nn(C)c12` [Compound 75, 1,6,8-trimethyl-N-(4-(methylsulfonyl)benzyl)-1H-pyrazolo[3′,4′:4,5]thieno[2,3-b]pyridin-3-amine]: the “Emax (%)*” value is on record as 73%, the pEC50 amounted to 6.60 and the EC50 is 250 nM.

Consider `CCCn1nc(N)c2sc3nc(C)cc(C)c3c21` [Compound 166, 6,8-dimethyl-1-propyl-1H-pyrazolo[3′,4′:4,5]thieno[2,3-b]pyridin-3-amine], for which the pEC50 was below 5.00 and the EC50 is above 10000 nM.

As for `COc1ccc(CNc2nn(C)c3c2sc2nccc(C)c23)cc1` [Compound 63, N-(4-methoxybenzyl)-1,8-dimethyl-1H-pyrazolo[3′,4′:4,5]thieno[2,3-b]pyridin-3-amine], the “Emax (%)*” value stood at 80%, the pEC50 is 5.77 and the concentration giving a half-maximal response (EC50) was 1700 nM.

With `Cc1cc(C)c2c(n1)sc1c(NCc3ccc(C)o3)nn(C)c12` [Compound 78, 1,6,8-trimethyl-N-((5-methylfuran-2-yl)methyl)-1H-pyrazolo[3′,4′:4,5]thieno[2,3-b]pyridin-3-amine], the “Emax (%)*” value was 84%, the pEC50 was 7.05 and the 50% effective concentration (EC50) was 90 nM.

As to `Cc1cc(C)c2c(n1)sc1c(NC3CCN(C)C3)nn(C)c12` (stereo not shown) [Compound 105, ,6,8-trimethyl-N-(1-methylpyrrolidin-3-yl)-1H-pyrazolo[3′,4′:4,5]thieno[2,3-b]pyridin-3-amine], the “Emax (%)*” value came to 35%, the pEC50 is reported as below 5.00 and the EC50 was above 10000 nM.

`CCOC(=O)CNc1n[nH]c2c1sc1nc(C)cc(C)c12` [Compound 111, ethyl 2-((6,8-dimethyl-1H-pyrazolo[3′,4′:4,5]thieno[2,3-b]pyridin-3-yl)amino)acetate]: the “Emax (%)*” value is listed as 50%, the negative logarithm of the EC50 (pEC50) is recorded as below 5.00 and the EC50 is above 10000 nM.

For `Cc1nc2sc3c(NCC4CC4)nn(C)c3c2c(C)c1Cl` [Compound 19, 7-chloro-N-(cyclopropylmethyl)-1,6,8-trimethyl-1H-pyrazolo[3′,4′:4,5]thieno[2,3-b]pyridin-3-amine], the “Emax (%)*” value is 65%, the negative-log EC50 (pEC50) turned out to be 6.59 and the half-maximal effective concentration (EC50) was 260 nM.

For the compound `COc1ccc(Cn2nc(N(C)C)c3sc4nc(C)cc(C)c4c32)cc1` [Compound 155, 1-(4-methoxybenzyl)-N,N,6,8-tetramethyl-1H-pyrazolo[3′,4′:4,5]thieno[2,3-b]pyridin-3-amine], the pEC50 is below 5.00 and the EC50 is above 10000 nM.

For `Cc1nc2sc3c(N)n[nH]c3c2c(C)c1Cl` [Compound 141, 7-chloro-6,8-dimethyl-1H-pyrazolo[3′,4′:4,5]thieno[2,3-b]pyridin-3-amine], the pEC50 is recorded as below 5.00 and the 50% effective concentration (EC50) was above 10000 nM.

Regarding `Cc1nc2sc3c(NCCC(C)C)n[nH]c3c2c(C)c1Cl` [Compound 140, 7-chloro-N-isopentyl-6,8-dimethyl-1H-pyrazolo[3′,4′:4,5]thieno[2,3-b]pyridin-3-amine], the pEC50 is listed as below 5.00 and the EC50 is above 10000 nM.

On to `Cc1cc(C)c2c(n1)sc1c(NCC3CC3)nn(C)c12` [Compound 30, N-(cyclopropylmethyl)-1,6,8-trimethyl-1H-pyrazolo[3′,4′:4,5]thieno[2,3-b]pyridin-3-amine], for which the “Emax (%)*” value is 73%, the negative logarithm of the EC50 (pEC50) amounted to 6.80 and the EC50 is 160 nM.

For `Cc1ccc2c(n1)sc1c(NC(=O)c3ccccc3)nn(C)c12` [Compound 157, N-(1,6-dimethyl-1H-pyrazolo[3′,4′:4,5]thieno[2,3-b]pyridin-3-yl)benzamide], the pEC50 is recorded as below 5.00 and the EC50 is above 10000 nM.

As for `Cc1cc(C)c2c(n1)sc1c(NC(=O)C3CC3)n[nH]c12` [Compound 2, N-(6,8-dimethyl-1H-pyrazolo[3′,4′:4,5]thieno[2,3-b]pyridin-3-yl)cyclopropanecarboxamide], the “Emax (%)*” value is 36%, the pEC50 stood at 5.42 and the EC50 was 3840 nM.

As to `Cc1cc(C)c2c(n1)sc1c(NCc3scnc3C)nn(C)c12` [Compound 93, 1,6,8-trimethyl-N-((4-methylthiazol-5-yl)methyl)-1H-pyrazolo[3′,4′:4,5]thieno[2,3-b]pyridin-3-amine], the “Emax (%)*” value is 53%, the negative logarithm of the EC50 (pEC50) is 7.42 and the concentration for a half-maximal effect (EC50) is 38 nM.

What is called pEC50 is the negative decadic logarithm of the EC50, by convention in mol/L. As usually defined, the EC50 is the concentration needed to bring the measured effect to its halfway point.
